Measured values reported in US20240376113A1 (Volastra Therapeutics, Inc., priority 2020, published 2024).
Read-outs that look alike come from different tables or passages of the source.

Columns and labels:
[1] = target: ENPP1 on MDA-MB-231 cells (Homo sapiens (Human), UniProt P22413); assay: Inhibition of ENPP1 hydrolysis of AMP p-nitrophenyl ester on MDA-MB-231 cells (Assay 2); assay type: cell-based
Experimental: Inhibition of ENPP1 Hydrolysis of AMP p-Nitrophenyl Ester on MDA-MB-231 Cells (Assay 2)
ENPP1 is normally expressed on the human metastatic breast cancer cell line MDA-MB-231. Hydrolysis of the p-nitrophenyl ester of AMP (pNP-AMP), an isostere of ATP, is selectively catalyzed by ENPP1 in the supernatant of MDA-MB-231 cell cultures. Inhibition of the hydrolysis of pNP-AMP by MDA-MB-231 at pH 7.4 and 37° C. is a good model of physiologically relevant activity of membrane-bound ENPP1 at disease-relevant expression levels.
MDA-MB-231 cells were harvested using TypLE Express Enzyme digestion and suspended in 100 μL of Leibovitz's L-15 Medium, 20% FBS, seeding the cells in a 96-well assay plate with 4.5×10^4 cells/well. Cells were incubated at 37 C with 1% CO2 for 24 h. In a separate dilution plate, 2× of top dose of compound was prepared in phenol-red free 1640 medium without FBS and then 1:3 serial diluted in the same medium. The cell culture medium of L15 medium was aspirated carefully and cells were washed with PBS once, and 50 μL per well of test compound or DMSO blank are added to the assay plate. Substrate mix (50 μL; 0.5 mM pNP-AMP in phenol-red free 1640 media without FBS) was added for a pNP-AMP final concentration of 0.25 mM. The system was incubated at 37° C. for 3 h.

[2] = target: ENPP-1 ECD (Homo sapiens (Human), UniProt P22413); assay: Inhibition of ENPP1 hydrolysis of 2′,3′-cGAMP (Assay 1)
Experimental: Test compounds were plated in a 3× dilution scheme in a 384 well plate.

[3] = pNP-AMP 0.25 mM, MDA-MB-231 cells, 37° C. 3 h, KI,app from IC50 via Cheng/Prusoff, read-out: Assay 2 KI, app
[4] = pNP-AMP 0.25 mM, MDA-MB-231 cells, 37° C. 3 h, KI,app from IC50 via Cheng/Prusoff, read-out: Assay 2 KI,app values (class)
[5] = read-out: Assay 1 KI values (class), 2,3-cGAMP 24 μM, AMP-Glo luminescence, KI from IC50 via Cheng/Prusoff
[6] = read-out: Assay 1 KI, 2,3-cGAMP 24 μM, AMP-Glo luminescence, KI from IC50 via Cheng/Prusoff
[7] = Assay 1 KI values (class), 2,3-cGAMP 24 μM, AMP-Glo luminescence, KI from IC50 via Cheng/Prusoff

Chain of ENPP1 on MDA-MB-231 cells (P22413 whole entry): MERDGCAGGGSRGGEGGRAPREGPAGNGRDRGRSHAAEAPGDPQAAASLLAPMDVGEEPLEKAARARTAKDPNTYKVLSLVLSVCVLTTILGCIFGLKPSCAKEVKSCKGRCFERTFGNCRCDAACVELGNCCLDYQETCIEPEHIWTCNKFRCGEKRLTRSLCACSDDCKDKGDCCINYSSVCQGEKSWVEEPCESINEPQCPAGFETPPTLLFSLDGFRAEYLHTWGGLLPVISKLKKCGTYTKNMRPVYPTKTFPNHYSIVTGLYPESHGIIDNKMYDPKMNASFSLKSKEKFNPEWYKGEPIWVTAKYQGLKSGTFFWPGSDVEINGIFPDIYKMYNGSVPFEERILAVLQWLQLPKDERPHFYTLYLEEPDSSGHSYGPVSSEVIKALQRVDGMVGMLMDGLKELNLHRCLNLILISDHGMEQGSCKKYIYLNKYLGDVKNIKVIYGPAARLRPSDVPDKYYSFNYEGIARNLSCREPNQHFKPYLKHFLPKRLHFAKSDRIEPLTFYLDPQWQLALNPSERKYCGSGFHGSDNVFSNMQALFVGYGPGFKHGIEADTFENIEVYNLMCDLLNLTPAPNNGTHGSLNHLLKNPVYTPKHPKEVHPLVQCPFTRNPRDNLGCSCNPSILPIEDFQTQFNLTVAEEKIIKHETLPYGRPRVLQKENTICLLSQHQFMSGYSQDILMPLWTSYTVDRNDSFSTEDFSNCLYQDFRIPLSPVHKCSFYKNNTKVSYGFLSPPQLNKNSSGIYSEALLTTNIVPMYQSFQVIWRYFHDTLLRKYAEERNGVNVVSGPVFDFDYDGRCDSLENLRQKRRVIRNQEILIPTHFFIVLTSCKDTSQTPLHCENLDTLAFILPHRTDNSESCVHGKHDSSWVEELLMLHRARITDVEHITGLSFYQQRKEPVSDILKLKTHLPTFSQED
Chain of ENPP-1 ECD (P22413 98-925): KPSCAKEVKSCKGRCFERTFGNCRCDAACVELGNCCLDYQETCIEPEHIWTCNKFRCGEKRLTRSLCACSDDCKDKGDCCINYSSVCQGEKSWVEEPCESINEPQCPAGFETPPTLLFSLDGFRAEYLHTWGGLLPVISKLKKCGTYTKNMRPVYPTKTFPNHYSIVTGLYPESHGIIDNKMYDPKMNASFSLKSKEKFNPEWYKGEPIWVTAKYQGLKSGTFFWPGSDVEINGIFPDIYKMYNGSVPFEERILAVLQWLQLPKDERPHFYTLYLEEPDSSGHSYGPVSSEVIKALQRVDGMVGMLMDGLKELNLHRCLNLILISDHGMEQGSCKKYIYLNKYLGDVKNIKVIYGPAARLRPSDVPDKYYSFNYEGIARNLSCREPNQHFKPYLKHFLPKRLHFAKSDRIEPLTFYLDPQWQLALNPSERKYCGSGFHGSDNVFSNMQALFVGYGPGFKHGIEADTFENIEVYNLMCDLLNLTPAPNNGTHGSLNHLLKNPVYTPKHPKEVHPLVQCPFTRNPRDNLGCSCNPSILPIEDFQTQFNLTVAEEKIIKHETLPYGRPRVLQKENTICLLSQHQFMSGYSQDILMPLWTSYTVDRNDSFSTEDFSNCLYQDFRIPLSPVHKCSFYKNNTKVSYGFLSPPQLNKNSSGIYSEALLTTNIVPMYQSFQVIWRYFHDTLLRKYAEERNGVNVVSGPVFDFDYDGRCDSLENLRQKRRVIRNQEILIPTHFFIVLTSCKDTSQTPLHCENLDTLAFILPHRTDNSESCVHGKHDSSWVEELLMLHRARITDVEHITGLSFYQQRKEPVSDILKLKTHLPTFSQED

Ki [1, 3] [nM]	Ki [1, 4] [nM]	Ki [2, 5] [nM]	Ki [2, 6] [nM]	Ki [2, 7] [nM]	SMILES	Ki [1] [nM]	Ki [2] [nM]
					Cc1nc2ncnn2c(N(C)C)c1Cc1cccc(N)c1	1400	110
1.67	< 10	< 3	0.015		Cc1nc2ncnn2c(N(C)C)c1Cc1ccc([S@@](C)(=N)=O)cc1 (single isomer, unassigned) [Compound 1b]		
9.73	< 10	< 3	0.054		Cc1nc2ncnn2c(N2CCCC2)c1Cc1ccc([S@](C)(=N)=O)cc1 (single isomer, unassigned) [Compound 8a]		
0.56	< 10	< 3	0.00806		Cc1cc2ncnn2c(N(C)C)c1Cc1ccc([S@](C)(=N)=O)cc1 (single isomer, unassigned) [Compound 28a]		
1.59	< 10	< 3	0.0236		Cc1nc2ncnn2c(N(C)C)c1Cc1ccc([S@@](C)(=N)=O)cc1 (single isomer, unassigned) [Compound 49a]		
0.298			0.00604		Cc1c(Cc2ccc([S@@](C)(=N)=O)cc2)c(N(C)C)n2ncnc2c1C#N (single isomer, unassigned) [Compound 85a]		
7.47	< 10		0.109	< 3	Cc1nc2ncnn2c(N(C)C)c1Cc1ccc(S(C)(=N)=O)cc1 (stereo not shown) [Compound 1, (4-((7-(dimethylamino)-5-methyl-[1,2,4]triazolo[1,5-a]pyrimidin-6-yl)methyl)phenyl)(imino)(methyl)-λ^6-sulfanone]		
14.4	> 10		0.158	< 3	Cc1nc2ncnn2c(N(C)C)c1Cc1ccc(S(N)(=O)=O)cc1 [Compound 2, 4-((7-(dimethylamino)-5-methyl-[1,2,4]triazolo[1,5-a]pyrimidin-6-yl)methyl)benzenesulfonamide]		
7.94	< 10		0.851	< 3	Cc1nc2ncnn2c(N(C)C)c1Cc1ccc(P(=O)(O)O)cc1 [Compound 5, (4-{[7-(dimethylamino)-5-methyl-[1,2,4]triazolo[1,5-a]pyrimidin-6-yl]methyl}phenyl)phosphonic acid]		
7.79	< 10		0.0718	< 3	Cc1nc2ncnn2c(N2CCCC2)c1Cc1ccc(S(C)(=N)=O)cc1 (stereo not shown) [Compound 8, imino(methyl)(4-((5-methyl-7-(pyrrolidin-1-yl)-[1,2,4]triazolo[1,5-a]pyrimidin-6-yl)methyl)phenyl)-λ^6-sulfanone]		
32.4	> 10		0.569	< 3	Cc1nc2ncnn2c(N2CCCC2)c1Cc1ccc(S(N)(=O)=O)cc1 [Compound 9, 4-((5-methyl-7-(pyrrolidin-1-yl)-[1,2,4]triazolo[1,5-a]pyrimidin-6-yl)methyl)benzenesulfonamide]		
224	> 10		3.12	3 to 300	Cc1nc2ncnn2c(N2CCC2)c1Cc1ccc(S(C)(=N)=O)cc1 (stereo not shown) [Compound 10, (4-((7-(azetidin-1-yl)-5-methyl-[1,2,4]triazolo[1,5-a]pyrimidin-6-yl)methyl)phenyl)(imino)(methyl)-λ^6-sulfanone]		
48.9	> 10		0.479	< 3	CCN(C)c1c(Cc2ccc(S(C)(=N)=O)cc2)c(C)nc2ncnn12 (stereo not shown) [Compound 12, (4-((7-(ethyl(methyl)amino)-5-methyl-[1,2,4]triazolo[1,5-a]pyrimidin-6-yl)methyl)phenyl)(imino)(methyl)-λ^6-sulfanone]		
14.9	> 10		0.0814	< 3	Cc1nc2ncnn2c(N2CCCCC2)c1Cc1ccc(S(C)(=N)=O)cc1 (stereo not shown) [Compound 16, imino(methyl)(4-((5-methyl-7-(piperidin-1-yl)-[1,2,4]triazolo[1,5-a]pyrimidin-6-yl)methyl)phenyl)-λ^6-sulfanone]		
11.9	> 10	< 3	0.0627		Cc1nc2ncnn2c(N2CCCCC2)c1Cc1ccc([S@](C)(=N)=O)cc1 [Compound 16a]		
1.06	< 10		< 0.027	< 3	Cc1cc2ncnn2c(N(C)C)c1Cc1ccc(S(C)(=N)=O)cc1 (stereo not shown) [Compound 28, (4-{[5-(dimethylamino)-7-methyl-[1,2,4]triazolo[1,5-a]pyridin-6-yl]methyl}phenyl)(imino)methyl-λ^6-sulfanone]		
12.2	> 10		0.252	< 3	Cc1nc2nccn2c(N(C)C)c1Cc1ccc(S(C)(=N)=O)cc1 (stereo not shown) [Compound 29, (4-{[5-(dimethylamino)-7-methylimidazo[1,2-a]pyrimidin-6-yl]methyl}phenyl)(imino)methyl-λ^6-sulfanone]		
3.15	< 10	< 3	0.106		Cc1nc2nccn2c(N(C)C)c1Cc1ccc([S@](C)(=N)=O)cc1 [Compound 29a]		
5.68	< 10		0.512	< 3	Cc1nc2ncnn2c(N2CCCC2)c1Cc1ccc(P(=O)(O)O)cc1 [Compound 36, (4-{[5-methyl-7-(pyrrolidin-1-yl)-[1,2,4]triazolo[1,5-a]pyrimidin-6-yl]methyl}phenyl)phosphonic acid]		
4.7	< 10		0.0621	< 3	[2H]C([2H])([2H])N(c1c(Cc2ccc(S(C)(=N)=O)cc2)c(C)nc2ncnn12)C([2H])([2H])[2H] (stereo not shown) [Compound 49, [4-[{7-[di(^2H3)methylamino]-5-methyl-[1,2,4]triazolo[1,5-a]pyrimidin-6-yl}methyl)phenyl](imino)methyl-λ^6-sulfanone]		
15.7	> 10			< 3	CCc1nc2ncnn2c(N2CCCC2)c1Cc1ccc(S(C)(=N)=O)cc1 (stereo not shown) [Compound 50, (4-{[5-ethyl-7-(pyrrolidin-1-yl)-[1,2,4]triazolo[1,5-a]pyrimidin-6-yl]methyl}phenyl)(imino)methyl-λ^6-sulfanone]		
1.11	< 10			< 3	CN(C)c1c(Cc2ccc(S(C)(=N)=O)cc2)c(C2CC2)nc2ncnn12 (stereo not shown) [Compound 53, (4-{[5-cyclopropyl-7-(dimethylamino)-[1,2,4]triazolo[1,5-a]pyrimidin-6-yl]methyl}phenyl)(imino)methyl-λ^6-sulfanone]		
1.65				< 3	Cc1nc2ncnn2c(N(C)C)c1Cc1ccc(S(=N)(=O)Cc2ccccc2)cc1 (stereo not shown) [Compound 55, benzyl(4-((7-(dimethylamino)-5-methyl-[1,2,4]triazolo[1,5-a]pyrimidin-6-yl)methyl)phenyl)(imino)-λ^6-sulfanone]		
9.59	< 10			< 3	CCS(=N)(=O)c1ccc(Cc2c(C)nc3ncnn3c2N(C)C)cc1 (stereo not shown) [Compound 57, (4-{[7-(dimethylamino)-5-methyl-[1,2,4]triazolo[1,5-a]pyrimidin-6-yl]methyl}phenyl)(ethyl)imino-λ^6-sulfanone]		
11.5	> 10			< 3	Cc1nc2ncnn2c(N(C)C)c1Cc1ccc(S(=N)(=O)CCO)cc1 (stereo not shown) [Compound 59, (4-{[7-(dimethylamino)-5-methyl-[1,2,4]triazolo[1,5-a]pyrimidin-6-yl]methyl}phenyl)(2-hydroxyethyl)imino-λ^6-sulfanone]		
6.25	< 10		0.0862	< 3	COCCS(=N)(=O)c1ccc(Cc2c(C)nc3ncnn3c2N(C)C)cc1 (stereo not shown) [Compound 60, (4-{[7-(dimethylamino)-5-methyl-[1,2,4]triazolo[1,5-a]pyrimidin-6-yl]methyl}phenyl)(imino)(2-methoxyethyl)-λ^6-sulfanone]		
4.41	< 10		0.0667	< 3	CC(=O)NCCS(=N)(=O)c1ccc(Cc2c(C)nc3ncnn3c2N(C)C)cc1 (stereo not shown) [Compound 64, N-{2-[(4-{[7-(dimethylamino)-5-methyl-[1,2,4]triazolo[1,5-a]pyrimidin-6-yl]methyl}phenyl)(imino)oxo-λ^6-sulfanyl]ethyl}acetamide]		
8.29					Cc1c(Cc2ccc(S(C)(=N)=O)cc2)c(N(C)C)nc2ncnn12 (stereo not shown) [Compound 86, (4-{[5-(dimethylamino)-7-methyl-[1,2,4]triazolo[1,5-a]pyrimidin-6-yl]methyl}phenyl)(imino)methyl-λ^6-sulfanone]		

SMILES	Ki [1, 3] [nM]	Ki [1, 4] [nM]	Ki [2, 5] [nM]	Ki [2, 6] [nM]	Ki [2, 7] [nM]	Ki [1] [nM]	Ki [2] [nM]
CS(=N)(=O)c1ccc(Cc2cnc3ncnn3c2N2CCCC2)cc1 (stereo not shown) [Compound 54]	74.7	> 10	< 3	1.71			
